Measurements: BindingDB's records for doi:10.1038/nchembio.1930 (Albert Einstein College of Medicine, 2015)

Tests used:
Settings in all cases: 25 °C
[1] = target: T1, Isocitrate dehydrogenase [NADP], mitochondrial (Homo sapiens, UniProt P48735); assay: Diaphorase/Resazurin Coupled Assay
T1 sequence (P48735 whole entry): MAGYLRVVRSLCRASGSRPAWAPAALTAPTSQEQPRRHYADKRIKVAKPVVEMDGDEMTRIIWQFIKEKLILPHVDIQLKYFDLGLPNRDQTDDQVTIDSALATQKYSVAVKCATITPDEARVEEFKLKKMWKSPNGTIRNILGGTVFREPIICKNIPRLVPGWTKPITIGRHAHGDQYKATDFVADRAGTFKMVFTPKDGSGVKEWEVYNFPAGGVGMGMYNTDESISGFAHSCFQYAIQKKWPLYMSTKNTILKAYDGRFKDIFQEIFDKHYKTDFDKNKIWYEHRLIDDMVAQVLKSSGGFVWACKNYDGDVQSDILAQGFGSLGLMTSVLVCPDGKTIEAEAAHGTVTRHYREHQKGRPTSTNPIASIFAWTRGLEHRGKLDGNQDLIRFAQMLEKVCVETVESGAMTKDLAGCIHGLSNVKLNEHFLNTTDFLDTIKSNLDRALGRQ
Description: (§1) For WT IDH1 and IDH2, reactions were conducted at room temperature in 384-well Greiner black microtiter plates in a total volume of 10 μL of assay buffer. […] Reactions were conducted in duplicate and run kinetically. After each addition, plates were centrifuged for 60 s to ensure complete mixing of reagents.

[2] = target: Isocitrate dehydrogenase [NADP], mitochondrial [R172S] (Homo sapiens, UniProt P48735, R172S); assay: RapidFire-MS/MS and NADPH Assays
Isocitrate dehydrogenase [NADP], mitochondrial [R172S], sequence (P48735 40-452 R172S limits assumed): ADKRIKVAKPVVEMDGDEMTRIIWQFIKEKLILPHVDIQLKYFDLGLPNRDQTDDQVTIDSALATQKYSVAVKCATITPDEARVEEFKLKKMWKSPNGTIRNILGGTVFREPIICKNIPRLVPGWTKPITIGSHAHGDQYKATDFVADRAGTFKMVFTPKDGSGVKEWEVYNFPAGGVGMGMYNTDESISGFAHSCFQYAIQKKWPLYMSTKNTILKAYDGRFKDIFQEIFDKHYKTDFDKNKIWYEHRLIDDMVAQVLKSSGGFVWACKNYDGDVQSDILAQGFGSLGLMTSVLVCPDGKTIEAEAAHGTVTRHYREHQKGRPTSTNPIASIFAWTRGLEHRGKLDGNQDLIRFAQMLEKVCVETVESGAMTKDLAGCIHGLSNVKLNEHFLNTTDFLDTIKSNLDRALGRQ
Description: (§2) Reactions were conducted in duplicate and quenched with final concentrations of 100 mM EDTA. After each addition plates were centrifuged for 60 s to ensure complete mixing of reagents. […] For the RapidFire-MS/MS analysis, a 0.5 μL aliquot of each well was diluted 200-fold into a separate analysis plate containing 100 μL of a f

[3] = target: Isocitrate dehydrogenase [NADP], mitochondrial [R140Q] (Homo sapiens, UniProt P48735, R140Q); assay: RapidFire-MS/MS and NADPH Assays
Isocitrate dehydrogenase [NADP], mitochondrial [R140Q], sequence (P48735 40-452 R140Q limits assumed): as the sequence (P48735 40-452 R172S limits assumed) above, with R101Q, S133R counted along it
Description: as §2

[4] = target: Isocitrate dehydrogenase [NADP] cytoplasmic (Homo sapiens, UniProt O75874); assay: Diaphorase/Resazurin Coupled Assay
Isocitrate dehydrogenase [NADP] cytoplasmic, sequence (O75874 whole entry): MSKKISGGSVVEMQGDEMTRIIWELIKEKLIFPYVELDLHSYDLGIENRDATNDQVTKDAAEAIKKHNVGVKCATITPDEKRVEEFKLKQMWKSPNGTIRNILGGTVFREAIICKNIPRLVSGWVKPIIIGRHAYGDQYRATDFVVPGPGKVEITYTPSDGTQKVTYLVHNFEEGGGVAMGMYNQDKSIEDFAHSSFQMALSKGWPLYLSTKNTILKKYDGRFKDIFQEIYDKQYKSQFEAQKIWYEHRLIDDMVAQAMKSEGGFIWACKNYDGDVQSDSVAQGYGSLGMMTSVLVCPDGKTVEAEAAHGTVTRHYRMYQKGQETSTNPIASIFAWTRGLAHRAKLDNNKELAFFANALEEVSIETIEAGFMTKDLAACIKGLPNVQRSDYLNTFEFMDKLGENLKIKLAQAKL
Description: as §1

[5] = target: Isocitrate dehydrogenase [NADP] cytoplasmic [R132G] (Homo sapiens, UniProt O75874, R132G); assay: RapidFire-MS/MS and NADPH Assays
Isocitrate dehydrogenase [NADP] cytoplasmic [R132G], sequence (O75874 2-414 R132G limits assumed): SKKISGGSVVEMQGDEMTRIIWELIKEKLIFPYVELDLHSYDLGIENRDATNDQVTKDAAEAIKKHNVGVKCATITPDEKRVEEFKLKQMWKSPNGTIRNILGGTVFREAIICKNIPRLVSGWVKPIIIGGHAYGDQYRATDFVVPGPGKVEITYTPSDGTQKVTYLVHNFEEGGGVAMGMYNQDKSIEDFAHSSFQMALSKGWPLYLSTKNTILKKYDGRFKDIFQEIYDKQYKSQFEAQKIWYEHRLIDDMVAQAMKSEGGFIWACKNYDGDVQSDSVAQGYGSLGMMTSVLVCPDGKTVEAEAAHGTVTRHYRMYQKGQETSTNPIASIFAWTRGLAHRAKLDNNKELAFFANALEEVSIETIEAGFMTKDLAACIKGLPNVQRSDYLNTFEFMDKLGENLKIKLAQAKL
Description: as §2

[6] = target: Isocitrate dehydrogenase [NADP] cytoplasmic [R132C] (Homo sapiens, UniProt O75874, R132C); assay: RapidFire-MS/MS and NADPH Assays
Isocitrate dehydrogenase [NADP] cytoplasmic [R132C], sequence (O75874 2-414 R132C limits assumed): as the sequence (O75874 2-414 R132G limits assumed) above, with G131C counted along it
Description: as §2

[7] = target: Isocitrate dehydrogenase [NADP] cytoplasmic [R132H] (Homo sapiens, UniProt O75874, R132H); assay: RapidFire-MS/MS and NADPH Assays
Isocitrate dehydrogenase [NADP] cytoplasmic [R132H], sequence (O75874 2-414 R132H limits assumed): as the sequence (O75874 2-414 R132G limits assumed) above, with G131H counted along it
Description: as §2

Row | IC50 [1] [µM] | IC50 [2] [µM] | IC50 [3] [µM] | IC50 [4] [µM] | IC50 [5] [µM] | IC50 [6] [µM] | IC50 [7] [µM] | Compound
1 | 0.496 | 1.03 | 1.36 |  |  |  |  | C[C@H](O)c1cccc(NC(=O)c2nn(Cc3ccc(F)cc3)c3c2CN(C(=O)c2ccc[nH]2)C[C@H]3C)c1 [GSK321]
2 | > 100 | > 100 | > 100 | > 100 | 23.3 | 4.49 | 10.9 | Cc1cccc(NC(=O)c2nn(Cc3c[nH]cn3)c3c2CN(C(=O)c2ccc[nH]2)CC3)c1 [GSK990]
